Tests used:
Aggrecan = experiment: Western blot of chondrocyte marker Aggrecan in bone marrow-derived MSCs; assay type: cell-based, human; settings: 100 nM for 7 days; MSCs in chondrogenic culture medium; not detectable in control
Method: (§1) Human bone marrow-derived stromal cells (ScienCell Research Laboratories), which contain a population of responsive mesenchymal stem cells, were grown in mesenchymal stem cell medium (ScienCell Research Laboratories). MSCs were serum-starved 24 hours prior to all experimental conditions. The synthesis of the synthetic triterpenoids, CDDO-Im and CDDO-EA, have been previously described (Sporn et al., 2011).
(§2) For directed chondrocytic differentiation, MSCs were grown in StemPro chondrogenic culture medium (Invitrogen) prepared by the technique of Kassem (2004), which is incorporated herein by reference. See also Medici et al. (2010), which is also incorporated herein by reference. CDDO-Im and CDDO-EA were added to the cultures at a concentration of 100 nM for 7 days. Western blot analysis was performed using the following antibodies at concentrations (and using protocols) recommended by the respective manufacturers: SOX9, COL2A1 (Santa Cruz Biotechnology), Aggrecan (Abcam), β-actin (Sigma-Aldrich). β-actin was used as a loading control. HRP-conjugated IgG TrueBlot reagents (eBioscience) were used at a dilution of 1:1000.

BMP-2 = experiment: Quantitative RT-PCR analysis on calvaria: BMP-2; assay type: cell-based, mouse; settings: 7 days of culture, normalized to control = 1.00
Method: (§3) All chemicals were from Sigma-Aldrich. Primers for RT-PCR were from Applied Biosystems. The isolation of calvaria was essentially performed as described previously (Garrett, 2003; Garret et al., 2003). The calvaria were cultured in Biggers, Gwatkins, Judah medium supplemented with 1 mg/mL of bovine serum albumin (Cohn fraction V), 100 U/mL each of penicillin/streptomycin, and 0.292 mg/mL of glutaimine. On Day 1, the calvaria were treated with CDDO-Im or CDDO-EA. On Day 4, the medium was replaced with fresh medium, again containing either CDDO-Im or CDDO-EA. On Day 7, the calvaria were collected and either stored at −80° C. for further RNA analysis or fixed in 10% buffered formalin for 24 h and transferred to 80% ethanol for histological analysis.
(§4) After 7 days of culture, RNA was isolated from the calvaria and quantitative RT-PCR analysis was performed for more than 15 different markers including: SOX9 (a transcription factor specific for cartilage), collagen type II (alpha 1), all three isoforms of TGF-β, BMPs 2 and 4, BMP receptor II, Smads 3, 4, 6, and 7, tissue inhibitors of metalloproteinases (TIMP-1 and TIMP-2), and matrix metalloproteinase-9 (MMP-9). […] Both triterpenoids are strong inhibitors of the expression of MMP-9; CDDO-EA (200 nM), caused almost 80% inhibition of the expression of this metalloproteinase, which is known to be involved in the degradation of cartilage (Shinoda et al., 2008).

MMP-9 = experiment: Quantitative RT-PCR analysis on calvaria: MMP-9; assay type: cell-based, mouse; settings: for MMP-9 expression (quantitative RT-PCR): 7 days of culture, normalized to control = 1.00
Method: as §3, §4

Smad4 = experiment: Quantitative RT-PCR analysis on calvaria: Smad4; assay type: cell-based, mouse; settings: 7 days of culture, normalized to control = 1.00
Method: as §3, §4

SOX-9 = experiment: Quantitative RT-PCR analysis on calvaria: SOX-9; assay type: cell-based, mouse; settings: 7 days of culture, normalized to control = 1.00
Method: as §3, §4

SOX9 = experiment: Western blot of chondrocyte marker SOX9 in bone marrow-derived MSCs; assay type: cell-based, human; settings: 100 nM for 7 days; MSCs in chondrogenic culture medium; not detectable in control
Method: as §1, §2

Smad3 = experiment: Quantitative RT-PCR analysis on calvaria: Smad3; assay type: cell-based, mouse; settings: 7 days of culture, normalized to control = 1.00
Method: as §3, §4

TGF-β1 = experiment: Quantitative RT-PCR analysis on calvaria: TGF-β1; assay type: cell-based, mouse; settings: 7 days of culture, normalized to control = 1.00
Method: as §3, §4

COL2A1 = experiment: Western blot of chondrocyte marker COL2A1 in bone marrow-derived MSCs; assay type: cell-based, human; settings: 100 nM for 7 days; MSCs in chondrogenic culture medium; not detectable in control
Method: as §1, §2

[1] = test system: collagen type II (COL2A1); experiment: Immunohistochemical analysis of collagen type II in calvaria; assay type: cell-based, mouse; settings: 200 nM, FIG. 1b
Method: as §3
(§5) After fixation for 24 h, the calvaria were decalcified in EDTA, embedded in paraffin, and cut into 4 μm sections. The sections were stained either with modified hematoxylin and eosin or with toluidine blue (1% in 70% ethanol for 20 min, followed by destaining in 70%, 90%, and 100% ethanol for 15 seconds), placed in xylene twice, and then mounted (Garret, 2003). Procedures for immunofluroescence were performed essentially as previously described (Medici et al., 2010). […]

TGF-β3 = experiment: Quantitative RT-PCR analysis on calvaria: TGF-β3; assay type: cell-based, mouse; settings: 7 days of culture, normalized to control = 1.00
Method: as §3, §4

TIMP-1 = experiment: Quantitative RT-PCR analysis on calvaria: TIMP-1; assay type: cell-based, mouse; settings: 7 days of culture, normalized to control = 1.00
Method: as §3, §4

TIMP-2 = experiment: Quantitative RT-PCR analysis on calvaria: TIMP-2; assay type: cell-based, mouse; settings: 7 days of culture, normalized to control = 1.00
Method: as §3, §4

newborn mouse calvaria = experiment: Histological analysis (toluidine blue) of chondrogenesis in newborn mouse calvarial organ cultures; assay type: cell-based; settings: 200 nM, 7 days, FIG. 1a, at least 3 sets of replicate experiments
Method: as §3, §5

TGF-β2 = experiment: Quantitative RT-PCR analysis on calvaria: TGF-β2; assay type: cell-based, mouse; settings: 7 days of culture, normalized to control = 1.00
Method: as §3, §4

Smad6 = experiment: Quantitative RT-PCR analysis on calvaria: Smad6; assay type: cell-based, mouse; settings: 7 days of culture, normalized to control = 1.00
Method: as §3, §4

BMP-4 = experiment: Quantitative RT-PCR analysis on calvaria: BMP-4; assay type: cell-based, mouse; settings: 7 days of culture, normalized to control = 1.00
Method: as §3, §4

Smad7 = experiment: Quantitative RT-PCR analysis on calvaria: Smad7; assay type: cell-based, mouse; settings: 7 days of culture, normalized to control = 1.00
Method: as §3, §4

BMPRII = experiment: Quantitative RT-PCR analysis on calvaria: BMPRII; assay type: cell-based, mouse; settings: 7 days of culture, normalized to control = 1.00
Method: as §3, §4

Col II alpha1 = experiment: Quantitative RT-PCR analysis on calvaria: Col II alpha1; assay type: cell-based, mouse; settings: 7 days of culture, normalized to control = 1.00
Method: as §3, §4

## CCNC(=O)[C@]12CCC(C)(C)C[C@H]1[C@H]1C(=O)C=C3[C@@]4(C)C=C(C#N)C(=O)C(C)(C)[C@@H]4CC[C@@]3(C)[C@]1(C)CC2 [CDDO-EA, CDDO-Ethyl amide]
Aggrecan
  induction of Aggrecan (Western blot): clear induction
BMP-2; 50 nM
  BMP-2 expression (quantitative RT-PCR): 1.53 ± 0.20
BMP-2; 200 nM
  BMP-2 expression (quantitative RT-PCR): 2.52 ± 0.29
BMP-2; 500 nM
  BMP-2 expression (quantitative RT-PCR): 5.66 ± 0.67
MMP-9; 50 nM
  MMP-9 expression (quantitative RT-PCR): 0.49 ± 0.09
MMP-9; 200 nM
  MMP-9 expression (quantitative RT-PCR): 0.22 ± 0.03
MMP-9; 200 nM, RT-PCR
  inhibition of the expression of MMP-9: ~80%
MMP-9; 500 nM
  MMP-9 expression (quantitative RT-PCR): 0.19 ± 0.06
Smad4; 50 nM
  Smad4 expression (quantitative RT-PCR): 1.06 ± 0.03
Smad4; 200 nM
  Smad4 expression (quantitative RT-PCR): 1.37 ± 0.12
Smad4; 500 nM
  Smad4 expression (quantitative RT-PCR): 1.89 ± 0.12
SOX-9; 50 nM
  SOX-9 expression (quantitative RT-PCR): 1.64 ± 0.17
SOX-9; 200 nM
  SOX-9 expression (quantitative RT-PCR): 2.62 ± 0.33
SOX-9; 500 nM
  SOX-9 expression (quantitative RT-PCR): 3.12 ± 0.38
SOX9
  induction of SOX9 (Western blot): clear induction
Smad3; 50 nM
  Smad3 expression (quantitative RT-PCR): 1.14 ± 0.12
Smad3; 200 nM
  Smad3 expression (quantitative RT-PCR): 1.35 ± 0.07
Smad3; 500 nM
  Smad3 expression (quantitative RT-PCR): 1.93 ± 0.16
TGF-β1; 50 nM
  TGF-β1 expression (quantitative RT-PCR): 1.17 ± 0.09
TGF-β1; 200 nM
  TGF-β1 expression (quantitative RT-PCR): 1.47 ± 0.24
TGF-β1; 500 nM
  TGF-β1 expression (quantitative RT-PCR): 1.74 ± 0.17
COL2A1
  induction of COL2A1 (Western blot): clear induction
[1]
  formation of collagen type II (COL2A1), red fluorescence: induce the formation of collagen type II
TGF-β3; 50 nM
  TGF-β3 expression (quantitative RT-PCR): 1.39 ± 0.07
TGF-β3; 200 nM
  TGF-β3 expression (quantitative RT-PCR): 1.56 ± 0.13
TGF-β3; 500 nM
  TGF-β3 expression (quantitative RT-PCR): 1.44 ± 0.11
TIMP-1; 50 nM
  TIMP-1 expression (quantitative RT-PCR): 1.88 ± 0.34
TIMP-1; 200 nM
  TIMP-1 expression (quantitative RT-PCR): 2.85 ± 0.38
TIMP-1; 500 nM
  TIMP-1 expression (quantitative RT-PCR): 4.65 ± 0.38
TIMP-2; 50 nM
  TIMP-2 expression (quantitative RT-PCR): 1.78 ± 0.18
TIMP-2; 200 nM
  TIMP-2 expression (quantitative RT-PCR): 2.44 ± 0.31
TIMP-2; 500 nM
  TIMP-2 expression (quantitative RT-PCR): 4.09 ± 0.36
Newborn mouse calvaria
  induction of chondrogenesis (metachromatic toluidine blue purple staining, proteoglycans): marked ability to induce chondrogenesis
TGF-β2; 50 nM
  TGF-β2 expression (quantitative RT-PCR): 1.36 ± 0.13
TGF-β2; 200 nM
  TGF-β2 expression (quantitative RT-PCR): 1.61 ± 0.11
TGF-β2; 500 nM
  TGF-β2 expression (quantitative RT-PCR): 1.88 ± 0.09
Smad6; 50 nM
  Smad6 expression (quantitative RT-PCR): 1.09 ± 0.04
Smad6; 200 nM
  Smad6 expression (quantitative RT-PCR): 1.77 ± 0.24
Smad6; 500 nM
  Smad6 expression (quantitative RT-PCR): 2.85 ± 0.31
BMP-4; 50 nM
  BMP-4 expression (quantitative RT-PCR): 1.28 ± 0.12
BMP-4; 200 nM
  BMP-4 expression (quantitative RT-PCR): 1.47 ± 0.13
BMP-4; 500 nM
  BMP-4 expression (quantitative RT-PCR): 2.49 ± 0.35
Smad7; 50 nM
  Smad7 expression (quantitative RT-PCR): 1.28 ± 0.10
Smad7; 200 nM
  Smad7 expression (quantitative RT-PCR): 1.86 ± 0.19
Smad7; 500 nM
  Smad7 expression (quantitative RT-PCR): 3.06 ± 0.28
BMPRII; 50 nM
  BMPRII expression (quantitative RT-PCR): 1.50 ± 0.14
BMPRII; 200 nM
  BMPRII expression (quantitative RT-PCR): 1.71 ± 0.19
BMPRII; 500 nM
  BMPRII expression (quantitative RT-PCR): 2.24 ± 0.22
Col II alpha1; 50 nM
  Col II alpha1 expression (quantitative RT-PCR): 4.12 ± 1.78
Col II alpha1; 200 nM
  Col II alpha1 expression (quantitative RT-PCR): 5.45 ± 1.13
Col II alpha1; 500 nM
  Col II alpha1 expression (quantitative RT-PCR): 3.18 ± 0.71

Source: patent US20140328809A1, “METHODS OF INDUCING CHONDROGENESIS IN MESENCHYMAL STEM CELLS USING SYNTHETIC TRITERPENOIDS” (TRUSTEES OF DARTMOUTH COLLEGE, priority 2011, published 2014)
